This passage reports Ki and Ratio Ki results from ChEMBL document CHEMBL3124825, “Benzimidazole: an emerging scaffold for analgesic and anti-inflammatory agents” (Eur J Med Chem, 2014).

One assay deals with Cannabinoid receptor 1 (Homo sapiens, UniProt P21554). In words: Agonist activity at human CB1 receptor.
A further assay addresses Cannabinoid receptor 2 (Homo sapiens, UniProt P34972). In words: Agonist activity at human CB2 receptor.
The species entered for the next assay is Homo sapiens. The assay can be described thus: Selectivity ratio of Ki for human CB1 receptor to Ki for human CB2 receptor.

Sequence of Cannabinoid receptor 2 (P34972 whole entry): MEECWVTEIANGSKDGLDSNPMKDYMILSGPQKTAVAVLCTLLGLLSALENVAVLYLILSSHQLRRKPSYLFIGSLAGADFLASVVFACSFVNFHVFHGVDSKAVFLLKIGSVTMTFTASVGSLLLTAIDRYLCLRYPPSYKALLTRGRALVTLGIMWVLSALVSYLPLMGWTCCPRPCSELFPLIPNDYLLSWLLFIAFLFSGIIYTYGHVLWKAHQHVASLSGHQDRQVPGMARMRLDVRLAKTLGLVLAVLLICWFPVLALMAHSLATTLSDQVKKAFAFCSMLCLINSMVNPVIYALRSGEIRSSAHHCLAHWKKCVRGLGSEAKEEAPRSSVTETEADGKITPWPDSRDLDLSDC
Sequence of Cannabinoid receptor 1 (P21554 whole entry): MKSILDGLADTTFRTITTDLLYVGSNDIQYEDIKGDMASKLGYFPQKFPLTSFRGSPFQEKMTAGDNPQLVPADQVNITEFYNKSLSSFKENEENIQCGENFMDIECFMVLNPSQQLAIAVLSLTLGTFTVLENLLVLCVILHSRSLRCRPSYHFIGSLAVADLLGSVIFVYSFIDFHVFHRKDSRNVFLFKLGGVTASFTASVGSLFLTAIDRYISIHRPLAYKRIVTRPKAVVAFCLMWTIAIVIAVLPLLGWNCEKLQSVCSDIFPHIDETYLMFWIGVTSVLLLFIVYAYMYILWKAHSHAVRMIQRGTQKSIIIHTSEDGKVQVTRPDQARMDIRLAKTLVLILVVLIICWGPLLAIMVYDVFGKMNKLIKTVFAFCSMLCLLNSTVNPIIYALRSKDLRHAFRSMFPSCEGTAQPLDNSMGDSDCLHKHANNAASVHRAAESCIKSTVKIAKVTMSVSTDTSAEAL

For orientation: Ki means the equilibrium dissociation constant of an inhibitor or competing ligand from its target. A lower Ki goes with a stronger hold on the target. For the molecule `CCOc1ccc(Cc2nc3cc(C(=O)N(C)CC)ccc3n2CCC(C)C)cc1`, the Ki is 3170 nM at Cannabinoid receptor 1 and 3.3 nM on Cannabinoid receptor 2. For the same molecule, the Ratio Ki in the assay filed under Homo sapiens was 970.
